Laboratory results published in patent US12514943B2 (priority 2020, dated 2026).

Tested on: Aspergillus brasiliensis (ATCC 16404)
Assay: Evaluation test for microbicidal effect, suspension test EN 13624:2013 (clean conditions)
Type: cell-based
Conditions: equal molar amount instead of glycine in the formula of Example 1-1

| SMILES | enhancement of the microbicidal activity of the acidic oxidant of peracetic acid and hydrogen peroxide (in words) |
| --- | --- |
| CC(=O)O [acetic acid] | could not enhance the microbicidal activity |
| O=P([O-])([O-])O.[K+].[K+] [dipotassium hydrogen phosphate] | could not enhance the microbicidal activity |
| O=P([O-])([O-])[O-].[Na+].[Na+].[Na+] [trisodium phosphate] | could not enhance the microbicidal activity |
